Laboratory results published in the supplement of paper PMC10307832.

What was measured:
Assay in all cases: relative viability (nuclei count vs DMSO), 5 days (fraction); higher = more cells survive
[1] = compound: OCc1c[nH]c2ccccc12 [Indole-3-carbinol] + CC(=O)c1c(C)c2cnc(Nc3ccc(N4CCNCC4)cn3)nc2n(C2CCCC2)c1=O [Palbociclib] (partner 0.5 µM)
Procedure, shortened: (§1)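 The day after seeding in 1536-well plates, lung cancer cell lines were treated by pin tool with a single drug, or with a fixed anchor-drug dose together with five library-drug doses (not always all listed) in √10 steps. After 5 days, a combined fix-and-stain solution (final 0.05% Triton X-100, 1% formaldehyde, 1 ug/ml Hoechst) was added. Nuclei counted on 4× images gave relative viability as treated counts over vehicle counts, reported as the median of duplicate plates.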

[2] = compound: OCc1c[nH]c2ccccc12 [Indole-3-carbinol] + CC(C)C[C@H](NC(=O)[C@H](Cc1ccccc1)NC(=O)c1cnccn1)B(O)O [Bortezomib] (partner 0.002 µM)
Procedure, shortened: as §1

[3] = compound: OCc1c[nH]c2ccccc12 [Indole-3-carbinol] + COc1cc2c(Oc3ccc(NC(=O)C4(C(=O)Nc5ccc(F)cc5)CC4)cc3F)ccnc2cc1OCCCN1CCOCC1 [Foretinib] (partner 0.25 µM)
Procedure, shortened: as §1

[4] = compound: OCc1c[nH]c2ccccc12 [Indole-3-carbinol] + Nc1nc2[nH]cc(CCc3ccc(C(=O)N[C@@H](CCC(=O)O)C(=O)O)cc3)c2c(=O)[nH]1 [Pemetrexed] (partner 0.2 µM)
Procedure, shortened: as §1

[5] = compound: OCc1c[nH]c2ccccc12 [Indole-3-carbinol] + Nc1ncn([C@H]2C[C@H](O)[C@@H](CO)O2)c(=O)n1 [Decitabine] (partner 2 µM)
Procedure, shortened: as §1

Cell Line | relative viability ([1]; first compound 0.253 µM) | relative viability ([1]; first compound 0.8 µM) | relative viability ([1]; first compound 2.53 µM) | relative viability ([1]; first compound 8 µM) | relative viability ([2]; first compound 0.253 µM) | relative viability ([2]; first compound 0.8 µM) | relative viability ([2]; first compound 2.53 µM) | relative viability ([2]; first compound 8 µM) | relative viability ([3]; first compound 0.253 µM) | relative viability ([3]; first compound 0.8 µM) | relative viability ([3]; first compound 2.53 µM) | relative viability ([3]; first compound 8 µM) | relative viability ([4]; first compound 0.253 µM) | relative viability ([4]; first compound 0.8 µM) | relative viability ([4]; first compound 2.53 µM) | relative viability ([4]; first compound 8 µM) | relative viability ([5]; first compound 0.253 µM) | relative viability ([5]; first compound 0.8 µM) | relative viability ([5]; first compound 2.53 µM) | relative viability ([5]; first compound 8 µM)
201T | 0.357 | 0.396 | 0.356 | 0.34 | 1.17 | 0.996 | 1.11 | 1.1 | 1.1 | 1.07 | 1.04 | 1.01 | 0.345 | 0.354 | 0.362 | 0.322 | 0.819 | 0.834 | 0.885 | 0.844
A549 | – | – | – | – | – | – | – | – | 0.968 | 1.04 | 0.911 | 0.965 | – | – | – | – | 0.271 | 0.287 | 0.272 | 0.235
A-427 | 0.52 | 0.568 | 0.547 | 0.491 | 0.937 | 0.992 | 1.03 | 0.886 | 0.941 | 1.14 | 1.01 | 0.94 | 0.997 | 1.03 | 0.926 | 0.946 | 0.53 | 0.542 | 0.607 | 0.547
ABC-1 | 0.681 | 0.807 | 0.794 | 0.735 | 0.297 | 0.292 | 0.324 | 0.33 | 0.903 | 0.961 | 1.13 | 1 | – | – | – | – | 0.993 | 1.14 | 1.12 | 1.24
BEN | 0.495 | 0.445 | 0.512 | 0.485 | 0.91 | 0.729 | 0.966 | 0.727 | 0.566 | 0.501 | 0.651 | 0.624 | 0.75 | 0.704 | 0.757 | 0.905 | 0.689 | 0.784 | 0.726 | 0.749
CAL-12T | 0.443 | 0.517 | 0.573 | 0.398 | 0.983 | 1 | 0.842 | 0.819 | 1.13 | 1.17 | 1.01 | 1.09 | 1.28 | 1.44 | 1.12 | 1.24 | – | – | – | –
COR-L23 | 0.323 | 0.245 | 0.308 | 0.237 | 0.926 | 1.14 | 0.899 | 0.883 | 0.992 | 0.977 | 1.1 | 0.951 | 0.193 | 0.202 | 0.198 | 0.209 | 0.428 | 0.465 | 0.414 | 0.385
COR-L 105 | 0.439 | 0.408 | 0.41 | 0.397 | 0.847 | 0.733 | 0.812 | 0.806 | 1.22 | 0.838 | 0.963 | 1.03 | 1.09 | 0.996 | 1.19 | 0.981 | 0.607 | 0.598 | 0.631 | 0.626
ChaGo-K-1 | 0.942 | 0.939 | 0.994 | 0.968 | 0.871 | 0.988 | 0.896 | 1.06 | 0.955 | 0.941 | 0.872 | 0.894 | 0.258 | 0.258 | 0.27 | 0.257 | 0.523 | 0.55 | 0.525 | 0.519
